{
  "source": "patent US6455070B1",
  "about": "“Composition for treating symptoms of influenza” (East Park Research, Inc., priority 2001, dated 2002)",
  "origin": "cited, not measured here",
  "system": "wide variety of viruses",
  "conditions": "greatest activity under alkaline conditions (pH 7.5)",
  "data": [
    {"smiles": "COC(=O)C1=CO[C@@H](C)[C@@H](C=O)[C@@H]1CC(=O)[O-].COC(=O)C1=CO[C@@H](C)[C@@H](C=O)[C@@H]1CC(=O)[O-].[Ca+2]", "note": "[calcium elenolate]", "values": [
      {"measurement": "in vitro antiviral activity", "value": "activity against a wide variety of viruses"}
    ]}
  ]
}
